Assay results as given in patent US8129544B2, “1-substituted-4-nitroimidazole compound and method for preparing the same” (Otsuka Pharmaceutical Co., Ltd., priority 2002, dated 2012).
≈ marks a conversion by molar mass, not a printed value.

What was measured:
[1] = test system: Mycobacterium tuberculosis H37RV; assay: Antibiotic test by using an agar plate dilution method; format: cell-based; settings: 336 h, Culture medium 7H11, inoculum about 10^6 CFU/ml (5 μl), cultivated at 37° C. for 14 days, read-out: Minimum inhibitory concentration

Row | Compound | melting point | MIC [1]
1 | C[C@]1(Cn2cc([N+](=O)[O-])nc2Br)CO1 | 93 to 94 °C | 
2 | C[C@]1(Cn2cc([N+](=O)[O-])nc2Cl)CO1 | 65.5 to 67 °C | 
3 | C[C@@]1(Cn2cc([N+](=O)[O-])nc2Br)CO1 | 93 to 94 °C | 
4 | C[C@]1(CN2CCN(c3ccc(OC(F)(F)F)cc3)CC2)Cn2cc([N+](=O)[O-])nc2O1 [Reference Example 7, (S)-2-[4-(4-trifluoromethoxyphenyl)piperazin-1-ylmethyl]-2-methyl-6-nitro-2,3-dihydroimidazo[2,1-b]oxazole] | 129 to 130 °C | 0.024 µg/mL (≈ 0.0562 µM)
